Test results as given in ChEMBL document CHEMBL1151687, “Search for alpha-helical propensity in the receptor-bound conformation of glucagon-like peptide-1” (Bioorg Med Chem, 2008).
Positions of bridges follow the written chain, without caps; N, C: chain ends. Residues, ends and D or L forms follow the SMILES beside them.

How the values were obtained:
[1] = target: T1, Glucagon-like peptide 1 receptor (Homo sapiens, UniProt P43220); experiment: Displacement of [125I]exendin(9-39) from human GLP1R expressed in HEK293 cells; type: cell-based
[2] = target: T1, Glucagon-like peptide 1 receptor; experiment: Activation of human GLP1R expressed in HEK293 cells assessed as effect on cAMP responsive element promoter driven luciferase expression; type: functional, cell-based

T1 sequence (P43220 whole entry): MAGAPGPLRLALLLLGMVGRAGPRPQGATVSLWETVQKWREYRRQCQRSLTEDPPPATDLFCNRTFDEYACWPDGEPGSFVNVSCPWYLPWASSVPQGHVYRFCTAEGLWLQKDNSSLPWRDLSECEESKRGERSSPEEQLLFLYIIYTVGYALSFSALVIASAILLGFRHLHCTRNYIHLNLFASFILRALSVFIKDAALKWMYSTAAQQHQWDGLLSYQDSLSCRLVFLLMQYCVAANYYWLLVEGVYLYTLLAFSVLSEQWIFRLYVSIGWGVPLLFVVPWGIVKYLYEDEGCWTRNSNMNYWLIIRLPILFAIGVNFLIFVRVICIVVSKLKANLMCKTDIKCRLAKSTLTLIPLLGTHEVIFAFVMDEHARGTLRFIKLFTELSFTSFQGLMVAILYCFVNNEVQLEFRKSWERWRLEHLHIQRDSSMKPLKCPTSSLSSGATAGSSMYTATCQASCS

Compound	IC50 [1] [nM]	EC50 [2] [nM]	IC50 ([1]; hek293) [nM]	EC50 ([2]; hek293) [nM]
CC[C@H](C)[C@H](NC(=O)[C@H](CCC(=O)O)NC(=O)[C@H](CCCCN)NC(=O)[C@H](C)NC(=O)[C@H](C)NC(=O)[C@H](CCC(N)=O)NC(=O)[C@H](CCC(N)=O)NC(=O)[C@H](CCC(=O)O)NC(=O)[C@H](CC(C)C)NC(=O)[C@H](Cc1ccc(O)cc1)NC(=O)[C@H](CCCCNC(C)=O)NC(=O)[C@H](CO)NC(=O)[C@@H](NC(=O)[C@H](CC(=O)O)NC(=O)[C@H](CO)NC(=O)[C@@H](NC(=O)[C@H](Cc1ccccc1)NC(=O)[C@@H](NC(=O)CNC(=O)[C@H](CCC(=O)O)NC(=O)[C@H](C)NC(=O)[C@@H](N)Cc1cnc[nH]1)[C@@H](C)O)[C@@H](C)O)C(C)C)C(=O)N[C@@H](Cc1ccccc1)C(=O)N[C@@H](C)C(=O)N[C@@H](Cc1c[nH]c2ccccc12)C(=O)N[C@@H](CC(C)C)C(=O)N[C@H](C(=O)N[C@@H](CCCCN)C(=O)NCC(=O)N[C@@H](CCCNC(=N)N)C(N)=O)C(C)C (H-HAEGTFTSDVSK(Ac)YLEQQAAKEIFAWLVKGR-NH2)	17	0.0038	–	–
CC[C@H](C)[C@H](NC(=O)[C@H](CCC(=O)O)NC(=O)[C@H](CCCCN)NC(=O)[C@H](C)NC(=O)[C@H](CCC(N)=O)NC(=O)[C@H](CCC(N)=O)NC(=O)CNC(=O)[C@H](CCC(=O)O)NC(=O)[C@H](CCCCNC(C)=O)NC(=O)[C@H](Cc1ccc(O)cc1)NC(=O)[C@H](CO)NC(=O)[C@H](CO)NC(=O)[C@@H](NC(=O)[C@H](CC(=O)O)NC(=O)[C@H](CO)NC(=O)[C@@H](NC(=O)[C@H](Cc1ccccc1)NC(=O)[C@@H](NC(=O)CNC(=O)[C@H](CCC(=O)O)NC(=O)[C@H](C)NC(=O)[C@@H](N)Cc1cnc[nH]1)[C@@H](C)O)[C@@H](C)O)C(C)C)C(=O)N[C@@H](Cc1ccccc1)C(=O)N[C@@H](C)C(=O)N[C@@H](Cc1c[nH]c2ccccc12)C(=O)N[C@@H](CC(C)C)C(=O)N[C@H](C(=O)N[C@@H](CCCCN)C(=O)NCC(=O)N[C@@H](CCCNC(=N)N)C(N)=O)C(C)C (H-HAEGTFTSDVSSYK(Ac)EGQQAKEIFAWLVKGR-NH2)	1200	0.1	–	–
CC[C@H](C)[C@H](NC(=O)[C@H](CCC(=O)O)NC(=O)[C@H](CCCCN)NC(=O)[C@H](C)NC(=O)[C@H](C)NC(=O)[C@H](CCC(N)=O)NC(=O)CNC(=O)[C@H](CCC(=O)O)NC(=O)[C@H](CC(C)C)NC(=O)[C@H](Cc1ccc(O)cc1)NC(=O)[C@H](CO)NC(=O)[C@H](CO)NC(=O)[C@@H](NC(=O)[C@H](CC(=O)O)NC(=O)[C@H](CO)NC(=O)[C@@H](NC(=O)[C@H](Cc1ccccc1)NC(=O)[C@@H](NC(=O)CNC(=O)[C@H](CCC(=O)O)NC(=O)[C@H](C)NC(=O)[C@@H](N)Cc1cnc[nH]1)[C@@H](C)O)[C@@H](C)O)C(C)C)C(=O)N[C@@H](Cc1ccccc1)C(=O)N[C@@H](C)C(=O)N[C@@H](Cc1c[nH]c2ccccc12)C(=O)N[C@@H](CC(C)C)C(=O)N[C@H](C(=O)N[C@@H](CCCCN)C(=O)NCC(=O)N[C@@H](CCCN=C(N)N)C(=O)O)C(C)C (H-HAEGTFTSDVSSYLEGQAAKEIFAWLVKGR-OH)	–	–	2.6	0.0036
CC[C@H](C)[C@H](NC(=O)[C@H](CCC(=O)O)NC(=O)[C@H](CCCCN)NC(=O)[C@H](CCC(N)=O)NC(=O)[C@H](C)NC(=O)[C@H](CCC(N)=O)NC(=O)CNC(=O)[C@H](CCCCNC(C)=O)NC(=O)[C@H](CC(C)C)NC(=O)[C@H](Cc1ccc(O)cc1)NC(=O)[C@H](CO)NC(=O)[C@H](CO)NC(=O)[C@@H](NC(=O)[C@H](CC(=O)O)NC(=O)[C@H](CO)NC(=O)[C@@H](NC(=O)[C@H](Cc1ccccc1)NC(=O)[C@@H](NC(=O)CNC(=O)[C@H](CCC(=O)O)NC(=O)[C@H](C)NC(=O)[C@@H](N)Cc1cnc[nH]1)[C@@H](C)O)[C@@H](C)O)C(C)C)C(=O)N[C@@H](Cc1ccccc1)C(=O)N[C@@H](C)C(=O)N[C@@H](Cc1c[nH]c2ccccc12)C(=O)N[C@@H](CC(C)C)C(=O)N[C@H](C(=O)N[C@@H](CCCCN)C(=O)NCC(=O)N[C@@H](CCCNC(=N)N)C(N)=O)C(C)C (H-HAEGTFTSDVSSYLK(Ac)GQAQKEIFAWLVKGR-NH2)	1600	0.12	–	–

Now from value to molecule:

IC50 [1] [nM]	EC50 [2] [nM]	IC50 ([1]; hek293) [nM]	EC50 ([2]; hek293) [nM]	Compound
15.1	0.002	–	–	CC[C@H](C)[C@H](NC(=O)[C@H](Cc1ccccc1)NC(=O)[C@H](CCC(=O)O)NC(=O)[C@H](CCCCN)NC(=O)[C@H](C)NC(=O)[C@H](C)NC(=O)[C@H](CCC(N)=O)NC(=O)[C@@H]1CCC(=O)NCCCC[C@H](NC(=O)[C@H](CO)NC(=O)[C@@H](NC(=O)[C@H](CC(=O)O)NC(=O)[C@H](CO)NC(=O)[C@@H](NC(=O)[C@H](Cc2ccccc2)NC(=O)[C@@H](NC(=O)CNC(=O)[C@H](CCC(=O)O)NC(=O)[C@H](C)NC(=O)[C@@H](N)Cc2cnc[nH]2)[C@@H](C)O)[C@@H](C)O)C(C)C)C(=O)N[C@@H](Cc2ccc(O)cc2)C(=O)N[C@@H](CC(C)C)C(=O)N[C@@H](CCC(=O)O)C(=O)N1)C(=O)N[C@@H](C)C(=O)N[C@@H](Cc1c[nH]c2ccccc12)C(=O)N[C@@H](CC(C)C)C(=O)N[C@H](C(=O)N[C@@H](CCCCN)C(=O)NCC(=O)N[C@@H](CCCN=C(N)N)C(N)=O)C(C)C (H-HAEGTFTSDVSKYLEEQAAKEFIAWLVKGR-NH2; lactam 12-16)
–	–	3000	0.36	CC[C@H](C)[C@H](NC(=O)[C@H](Cc1ccccc1)NC(=O)[C@H](CCC(=O)O)NC(=O)[C@H](CCCCN)NC(=O)[C@H](C)NC(=O)[C@@H]1CCC(=O)NCCCC[C@H](NC(=O)[C@H](Cc2ccc(O)cc2)NC(=O)[C@H](CO)NC(=O)[C@H](CO)NC(=O)[C@@H](NC(=O)[C@H](CC(=O)O)NC(=O)[C@H](CO)NC(=O)[C@@H](NC(=O)[C@H](Cc2ccccc2)NC(=O)[C@@H](NC(=O)CNC(=O)[C@H](CCC(=O)O)NC(=O)[C@H](C)NC(=O)[C@@H](N)Cc2cnc[nH]2)[C@@H](C)O)[C@@H](C)O)C(C)C)C(=O)N[C@@H](CCC(=O)O)C(=O)NCC(=O)N[C@@H](CCC(N)=O)C(=O)N1)C(=O)N[C@@H](C)C(=O)N[C@@H](Cc1c[nH]c2ccccc12)C(=O)N[C@@H](CC(C)C)C(=O)N[C@H](C(=O)N[C@@H](CCCCN)C(=O)NCC(=O)N[C@@H](CCCNC(=N)N)C(N)=O)C(C)C (H-HAEGTFTSDVSSYKEGQEAKEFIAWLVKGR-NH2; lactam 14-18)
–	–	9200	1.1	CC[C@H](C)[C@H](NC(=O)[C@H](Cc1ccccc1)NC(=O)[C@H](CCC(=O)O)NC(=O)[C@H](CCCCN)NC(=O)[C@@H]1CCC(=O)NCCCC[C@H](NC(=O)[C@H](CC(C)C)NC(=O)[C@H](Cc2ccc(O)cc2)NC(=O)[C@H](CO)NC(=O)[C@H](CO)NC(=O)[C@@H](NC(=O)[C@H](CC(=O)O)NC(=O)[C@H](CO)NC(=O)[C@@H](NC(=O)[C@H](Cc2ccccc2)NC(=O)[C@@H](NC(=O)CNC(=O)[C@H](CCC(=O)O)NC(=O)[C@H](C)NC(=O)[C@@H](N)Cc2cnc[nH]2)[C@@H](C)O)[C@@H](C)O)C(C)C)C(=O)NCC(=O)N[C@@H](CCC(N)=O)C(=O)N[C@@H](C)C(=O)N1)C(=O)N[C@@H](C)C(=O)N[C@@H](Cc1c[nH]c2ccccc12)C(=O)N[C@@H](CC(C)C)C(=O)N[C@H](C(=O)N[C@@H](CCCCN)C(=O)NCC(=O)N[C@@H](CCCNC(=N)N)C(N)=O)C(C)C (H-HAEGTFTSDVSSYLKGQAEKEFIAWLVKGR-NH2; lactam 15-19)
